In test [1] the target is T1, human RORγt ligand binding domain (RORγt LBD) (Homo sapiens, UniProt P51449).
T1 construct: His-tag (N); TurboTEV protease cleavage site (ENLYFQG) (N); made in house; host or cells: E. coli (pHIS1, modified pET vector)
T1 sequence (P51449 with tags, fused parts or gaps): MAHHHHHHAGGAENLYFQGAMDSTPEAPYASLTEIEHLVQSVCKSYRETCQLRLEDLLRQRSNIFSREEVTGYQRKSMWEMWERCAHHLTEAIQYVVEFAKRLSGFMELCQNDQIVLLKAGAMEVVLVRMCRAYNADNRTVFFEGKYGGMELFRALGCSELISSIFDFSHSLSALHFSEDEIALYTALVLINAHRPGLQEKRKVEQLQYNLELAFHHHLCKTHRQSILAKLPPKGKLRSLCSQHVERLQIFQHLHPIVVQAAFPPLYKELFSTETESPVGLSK
The experiment in a line: RORγt ThermoFluor assay (thermal shift, ligand binding affinity). Particulars: estimated from concentration response of thermal shift. In a few lines: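 Thermal shift of 0.065 mg/mL RORγt with 60 μM 1,8-ANS in 100 mM Hepes pH 7.0, 10 mM NaCl, 2.5 mM GSH, 0.002% Tween-20. Compounds in 1:2 series from 10 mM DMSO stock. Dye fluorescence (500 nm emission) tracked versus temperature; ΔTm used to derive KD.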

The next test has as its target T2, human RORγt LBD (Homo sapiens, UniProt P51449).
T2 construct: expressed in transfected cells
T2 sequence (P51449 258-518): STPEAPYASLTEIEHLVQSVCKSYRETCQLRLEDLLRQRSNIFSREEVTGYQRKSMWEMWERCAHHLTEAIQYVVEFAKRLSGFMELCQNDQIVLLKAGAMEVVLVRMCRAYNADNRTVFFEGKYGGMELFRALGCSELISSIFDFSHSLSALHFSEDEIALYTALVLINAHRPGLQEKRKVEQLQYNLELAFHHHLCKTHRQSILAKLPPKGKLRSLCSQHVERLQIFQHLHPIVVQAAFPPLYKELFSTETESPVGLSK
The test is described as follows: RORγt reporter assay (GAL4-RORγt LBD luciferase in HEK293T cells). Particulars: for IC50 / RORγt reporter Assay, % inhibition @ 6 μM: HEK293T cells; for IC50: 24 hours compound treatment; for inhibition at 6 µM: HEK-293T, read-out: RORγt reporter Assay, % inhibition @ 6 μM, HEK293T cells, 6 μM compound; for RORγt reporter Assay, % inhibition @ 6 μM: 6 μM compound. The format is cell-based. In a few lines: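 Read-out is the firefly-to-renilla luciferase ratio versus compound concentration, after 24 h compound exposure of cells in phenol-red-free DMEM/5% lipid-reduced FCS. Cells were HEK293T bulk-transfected with a GAL4-responsive firefly reporter (pGL4.31) and GAL4 DBD–wild-type human RORγt LBD fusion (pBIND, renilla as transfection/viability control).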

Structures can show the parent of a compound that is named as a salt.

This is an account of results in US9309222B2, “Phenyl linked quinolinyl modulators of RORγt” (Janssen Pharmaceutica NV, priority 2012, dated 2016).

`CCN1CCC(C(O)(c2ccccc2)c2ccc3nc(C(F)(F)F)c(-c4ccccc4)c(C(F)(F)F)c3c2)CC1` (stereo not drawn) [Example 168, (1-Ethylpiperidin-4-yl)(phenyl)(3-phenyl-2,4-bis(trifluoromethyl)quinolin-6-yl)methanol•TFA]: in test [1], the Kd was 3300 nM. Besides, at human RORγt LBD, the IC50 is about 6000 nM and the inhibition at 6 µM is 71%.
In the case of `OC(c1ccc(Cl)cc1)(c1cccnc1)c1ccc2nc(-c3cccnc3)c(-c3ccccc3)c(Cl)c2c1` (stereo not drawn) [Example 151, (4-Chloro-3-phenyl-2-(pyridin-3-yl)quinolin-6-yl)(4-chlorophenyl)(pyridin-3-yl)methanol], the Kd in test [1] is 5000 nM. Besides, at human RORγt LBD, half-maximal inhibition (IC50) was put at 2200 nM and the inhibition at 6 µM worked out at 85%.
For `OC(c1cccnc1)(c1ccc2nc(Cl)c(-c3ccccc3)c(Cl)c2c1)c1ccccc1Cl` (stereo not drawn) [Example 28, (2-Chlorophenyl)(2,4-dichloro-3-phenylquinolin-6-yl)pyridin-3-ylmethanol•TFA], in that order: 230 nM, about 200 nM and 99%.
For `CC(=O)N1CCC(C(O)(c2ccc3nc(C(F)(F)F)c(-c4ccccc4)c(C(F)(F)F)c3c2)c2cncn2C)CC1` (racemic) [Example 181a, 1-(4-(Hydroxy(1-methyl-1H-imidazol-5-yl)(3-phenyl-2,4-bis(trifluoromethyl)quinolin-6-yl)methyl)piperidin-1-yl)ethanone], in that order: 16 nM, 140 nM and 101%.
Take `Cn1cncc1C(O)(c1ccc2nc(C(F)(F)F)c(-c3ccccc3)c(C(F)(F)F)c2c1)c1ccccn1` (single isomer, unassigned) [Example 185c, (1-Methyl-1H-imidazol-5-yl)(3-phenyl-2,4-bis(trifluoromethyl)quinolin-6-yl)(pyridin-2-yl)methanol]: in test [1], the Kd is 760 nM. At human RORγt LBD, the “RORγt reporter Assay, % inhibition @ 6 μM” value turned out to be 91% and the midpoint of inhibition, the IC50, lay at 810 nM.
With `CCCCc1c(-c2ccccc2)cnc2ccc(C(O)(c3ccncc3)c3cncn3C)cc12` (stereo not drawn) [Example 83, (4-Butyl-3-phenylquinolin-6-yl)(1-methyl-1H-imidazol-5-yl)pyridin-4-ylmethanol•TFA], the equilibrium dissociation constant (Kd) in test [1] is 4200 nM. Further, on human RORγt LBD, the half-maximal inhibitory concentration (IC50) was over 6000 nM and the inhibition at 6 µM was -3%.
The matching figures for `OC(c1ccc(Cl)nc1)(c1cccc(F)c1)c1ccc2ncc(-c3ccccc3)c(Cl)c2c1` (stereo not drawn) [Example 61, (4-Chloro-3-phenylquinolin-6-yl)(6-chloropyridin-3-yl)(3-fluorophenyl)methanol]: 1800 nM, 2000 nM and 80%.
The matching figures for `OC(c1ccc(Cl)nc1)(c1cccc(Cl)c1)c1ccc2ncc(-c3ccccc3)c(Cl)c2c1` (stereo not drawn) [Example 60, (3-Chlorophenyl)(4-chloro-3-phenylquinolin-6-yl)(6-chloropyridin-3-yl)methanol]: 1300 nM, about 1000 nM and 86%.
The matching figures for `OC(c1ccccc1)(c1ccc2nc(C(F)(F)F)c(-c3ccccc3)c(C(F)(F)F)c2c1)C1CCNCC1` (stereo not drawn) [Example 167, Phenyl(3-phenyl-2,4-bis(trifluoromethyl)quinolin-6-yl)(piperidin-4-yl)methanol•TFA]: 400 nM, over 6000 nM and 62%.
As to `Cn1cncc1C(O)(c1ccc(Cl)cc1)c1ccc2nc(Cl)c(-c3ccccc3Cl)c(Cl)c2c1` (single isomer, unassigned) [Example 153d, (4-Chlorophenyl)(2,4-dichloro-3-(2-chlorophenyl)quinolin-6-yl)(1-methyl-1H-imidazol-5-yl)methanol], the Kd in test [1] was 3500 nM. For the same compound, at human RORγt LBD, the “RORγt reporter Assay, % inhibition @ 6 μM” value was found to be 75% and it took 1500 nM to reach half-maximal inhibition (IC50).
On to `CN1CCN(c2nc3ccc(C(O)(c4ccncc4)c4cncn4C)cc3c(Cl)c2-c2ccccc2)CC1` (stereo not drawn) [Example 19, [4-Chloro-2-(4-methylpiperazin-1-yl)-3-phenylquinolin-6-yl](1-methyl-1H-imidazol-5-yl)pyridin-4-ylmethanol•TFA], for which the Kd in test [1] was 9100 nM. For the same compound, at human RORγt LBD, the IC50 was over 6000 nM and the inhibition at 6 µM is 13%.
The matching figures for `Cn1ccnc1C(O)(c1ccc2nc(Cl)c(-c3ccccc3)c(Cl)c2c1)c1cnccn1` (stereo not drawn) [Example 123, (2,4-Dichloro-3-phenylquinolin-6-yl)(1-methyl-1H-imidazol-2-yl)(pyrazin-2-yl)methanol]: 2200 nM, about 6000 nM and 70%.
For `CN(C)c1c(-c2ccccc2)c(Cl)nc2ccc(C(O)(c3ccc(F)cc3)c3cccnc3)cc12` (stereo not drawn) [Example 39, [2-Chloro-4-(dimethylamino)-3-phenylquinolin-6-yl](4-fluorophenyl)pyridin-3-ylmethanol•TFA], in that order: 2500 nM, 1600 nM and 86%.
For the compound `COc1cccc(C(O)(c2cccnc2)c2ccc3ncc(-c4ccccc4)c(Cl)c3c2)c1` (stereo not drawn) [Example 58, (4-Chloro-3-phenylquinolin-6-yl)(3-methoxyphenyl)pyridin-3-ylmethanol], in test [1], the Kd is 2200 nM. In addition, at human RORγt LBD, the IC50 is about 6000 nM and the inhibition at 6 µM was determined as 40%.
For `Cc1cc(C(O)(c2ccc(C(F)(F)F)nc2)c2cncn2C)cc2c(C#N)c(-c3cccc(F)c3)c(C#N)nc12` (single isomer, unassigned) [Example 176b, 3-(3-Fluorophenyl)-6-(hydroxy(1-methyl-1H-imidazol-5-yl)(6-(trifluoromethyl)pyridin-3-yl)methyl)-8-methylquinoline-2,4-dicarbonitrile], the Kd in test [1] is 3400 nM. In addition, at human RORγt LBD, the IC50 stood at 1500 nM and the inhibition at 6 µM was 94%.
The matching figures for `Cn1ccnc1C(O)(c1cncnc1)c1ccc2nc(Cl)c(-c3ccccc3)c(Cl)c2c1` (stereo not drawn) [Example 125, (2,4-Dichloro-3-phenylquinolin-6-yl)(1-methyl-1H-imidazol-2-yl)(pyrimidin-5-yl)methanol]: 650 nM, 1000 nM and 66%.
For `Cn1cncc1C(O)(c1ccncc1)c1ccc2ncc(-c3ccccc3)c(Cl)c2c1` (stereo not drawn) [Example 53, (4-Chloro-3-phenylquinolin-6-yl)(1-methyl-1H-imidazol-5-yl)pyridin-4-ylmethanol•TFA], in test [1], the dissociation constant Kd is 950 nM. At human RORγt LBD, the IC50 is about 2000 nM and the inhibition at 6 µM turned out to be 61%.
For `Cn1nncc1C(O)(c1ccc(Cl)cc1)c1ccc2nc(Cl)c(-c3ccccc3)c(Cl)c2c1` (stereo not drawn) [Example 144, (4-Chlorophenyl)(2,4-dichloro-3-phenylquinolin-6-yl)(1-methyl-1H-1,2,3-triazol-5-yl)methanol], in that order: 260 nM, 520 nM and 102%.
The matching figures for `CN(C)c1nc2ccc(C(O)(c3ccncc3)c3cncn3C)cc2c(O)c1-c1ccccc1` (stereo not drawn) [Example 108, 2-(Dimethylamino)-6-[hydroxy(1-methyl-1H-imidazol-5-yl)pyridin-4-ylmethyl]-3-phenylquinolin-4-ol•TFA]: 330 nM, 1100 nM and 90%.
